Read-outs that look alike come from different tables or passages of the source.
Legend:
[1] = system: Herpes simplex type 2 virus; assay: Virucidal activity in vitro (plaque inhibition test); format: cell-based; conditions: 2 mg. of test compound on growth medium
Description: Virucidal activity of representative examples against Herpes simplex type 2 virus was determined in vitro employing a procedure similar to the plaque inhibition test for detection of specific inhibitors of DNA-containing viruses published by E. C. Herrmann, Jr., Proc. Soc. Exp. Biol. Med. 107, 142 (1961) wherein 2 mg. of the test compound was placed on the surface of the growth medium.

A. niger 16404 = assay: In vitro antifungal activity, MIC (modified Autotiter method); format: cell-based, Aspergillus niger; conditions: 18-20 hours at 37° C.; for MIC: Aspergillus niger, 16404, 20 h, read-out: MIC A. niger 16404
Outline: (§1)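 Inhibitory concentrations were established by automated serial twofold dilution of the test compound, starting at 1,000 mcg./ml. in solution, into sterile water, followed by inoculated semisynthetic medium (glucose, double strength); final concentrations tested: 500 to 0.06 mcg./ml.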

T. menta. 9129 = assay: as above; format: cell-based, Trichophyton mentagrophytes; conditions: 18-20 hours at 37° C.; for MIC: Trichophyton mentagrophytes, 20 h, read-out: MIC T. menta. 9129
Outline: as §1

[2] = system: young adult male Swiss-Webster strain albino mice; assay: Acute oral toxicity (ALD50); format: in vivo; conditions: for Mortality 7 Days / Mortality 24 Hrs: suspension in 1% G.T.
Description: The acute oral toxicity (ALD50) of several representative examples was determined as follows: Groups of 3 young adult male Swiss-Webster strain albino mice were fasted approximately 4 hours before medication and then medicated once orally by stomach tube.

P. mirab. MGH-1 = assay: In vitro antibacterial activity, MIC (modified Autotiter method); format: cell-based, Proteus mirabilis; conditions: 18-20 hours at 37° C.; for MIC: Proteus mirabilis, 20 h, read-out: MIC P. mirab. MGH-1
Outline: as §1

E. coli 100/B22 = assay: as above; format: cell-based, Escherichia coli; conditions: 18-20 hours at 37° C.; for MIC: Escherichia coli, 100/B22, 20 h, read-out: MIC E. coli 100/B22
Outline: as §1

E. coli Vogel = assay: as above; format: cell-based, Escherichia coli; conditions: 18-20 hours at 37° C.; for MIC: Escherichia coli, 20 h, read-out: MIC E. coli Vogel
Outline: as §1

E. coli AB1932-1 = assay: as above; format: cell-based, Escherichia coli; conditions: 18-20 hours at 37° C.; for MIC: Escherichia coli, AB19321, 20 h, read-out: MIC E. coli AB1932-1
Outline: as §1

K. pneum. 39645 = assay: as above; format: cell-based, Klebsiella pneumoniae; conditions: 18-20 hours at 37° C.; for MIC: Klebsiella pneumoniae, 20 h, read-out: MIC K. pneum. 39645
Outline: as §1

Ps. aerug. MGH-2 = assay: as above; format: cell-based, Pseudomonas aeruginosa; conditions: 18-20 hours at 37° C.
Outline: as §1

S. pyogen. C203 = assay: as above; format: cell-based, Streptococcus pyogenes; conditions: 18-20 hours at 37° C.
Outline: as §1

S. Aureus ATCC 6538 = assay: Effect of serum on bacteriostatic activity (serial tube dilution test); format: cell-based, Staphyloccocus aureus; conditions: for Fold Increase in MIC S. Aureus ATCC 6538: 40% vs 0% horse serum; for MIC: Staphylococcus aureus, ATCC6538
Description: (§2) Antibacterial effectiveness in the presence of serum was determined for representative examples by the standard serial tube dilution test wherein paired comparisons of minimum inhibitory concentrations (MIC) were determined in the absence and in the presence of heat inactivated (30 min. at 56° C.) horse serum (40%) in the test medium. The results are expressed as the fold increase in MIC (mcg./ml.) versus Staphyloccocus aureus and Escherichia coli caused by the presence of serum and are presented in Table B hereinbelow.

C. albicans Wisc. = assay: In vitro antifungal activity, MIC (modified Autotiter method); format: cell-based, Candida albicans; conditions: 18-20 hours at 37° C.; for MIC: Candida albicans, 20 h, read-out: MIC C. albicans Wisc.
Outline: as §1

C. albicans 10231 = assay: as above; format: cell-based, Candida albicans; conditions: 18-20 hours at 37° C.; for MIC: Candida albicans, 10231, 20 h, read-out: MIC C. albicans 10231
Outline: as §1

E. Coli ATCC 8739 = assay: Effect of serum on bacteriostatic activity (serial tube dilution test); format: cell-based, Escherichia coli; conditions: for Fold Increase in MIC E. Coli ATCC 8739: 40% vs 0% horse serum; for MIC: Escherichia coli, ATCC8739
Description: as §2

S. Aureus Smith = assay: In vitro antibacterial activity, MIC (modified Autotiter method); format: cell-based, Staphylococcus aureus; conditions: 18-20 hours at 37° C.; for MIC: Staphylococcus aureus, 20 h, read-out: MIC S. Aureus Smith
Outline: as §1

[3] = 40% heat inactivated horse serum, read-out: MIC S. Aureus ATCC 6538 40% Serum
[4] = read-out: MIC S. Aureus ATCC 6538 0% Serum
[5] = 40% heat inactivated horse serum, read-out: MIC E. Coli ATCC 8739 40% Serum
[6] = read-out: MIC E. Coli ATCC 8739 0% Serum

`CCCCCCCNc1cc[n+](CCCCCCCCCCCCCC[n+]2ccc(NCCCCCCC)cc2)cc1` [Example 1D, 1,14-bis-[4-(heptylamino)-1-pyridinium]-tetradecane dibromide] was tested, and the “Virucidal activity against Herpes simplex type 2 virus” value (“Virucidal activity” below) [1] was “active”, the “MIC A. niger 16404” value (A. niger 16404) was 3.0 µg/mL and the “MIC T. menta. 9129” value (T. menta. 9129) was 0.77 µg/mL. The “Mortality 7 Days” value ([2]; 125 mg/kg oral) was 0/3, the “Mortality 24 Hrs” value ([2]; 125 mg/kg oral) was 0/3 and the “Mortality 7 Days” value ([2]; 250 mg/kg oral) was 0/3. The “Mortality 24 Hrs” value ([2]; 250 mg/kg oral) was 0/3, the “Mortality 7 Days” value ([2]; 500 mg/kg oral) was 1/3 and the “Mortality 24 Hrs” value ([2]; 500 mg/kg oral) was 1/3. For the same compound, the “Mortality 7 Days” value ([2]; 1000 mg/kg oral) was 2/3, the “Mortality 24 Hrs” value ([2]; 1000 mg/kg oral) was 2/3 and the “7-Day ALD50” value ([2]; oral, suspension in 1% gum tragacanth, 10080 min) was 750 mg/kg. For the same compound, the “MIC P. mirab. MGH-1” value (P. mirab. MGH-1) was 1.54 µg/mL, the “MIC E. coli 100/B22” value (E. coli 100/B22) was 0.77 µg/mL and the “MIC E. coli Vogel” value (E. coli Vogel) was 1.54 µg/mL. The “MIC E. coli AB1932-1” value (E. coli AB1932-1) was 3.0 µg/mL, the “MIC K. pneum. 39645” value (K. pneum. 39645) was 0.77 µg/mL and the “MIC Ps. aerug. MGH-2” value (Ps. aerug. MGH-2) was 3.0 µg/mL. The “MIC S. pyogen. C203” value (S. pyogen. C203) was 1.95 µg/mL, the “Fold Increase in MIC S. Aureus ATCC 6538” value (S. Aureus ATCC 6538) was 16 fold and the MIC (S. Aureus ATCC 6538; [3]) was 3.12 µg/mL. For the same compound, the MIC (S. Aureus ATCC 6538; [4]) was 0.195 µg/mL, the “MIC C. albicans Wisc.” value (C. albicans Wisc.) was 1.54 µg/mL and the “MIC C. albicans 10231” value (C. albicans 10231) was 1.54 µg/mL. The “Fold Increase in MIC E. Coli ATCC 8739” value (E. Coli ATCC 8739) was 16 fold, the MIC (E. Coli ATCC 8739; [5]) was 25 µg/mL and the MIC (E. Coli ATCC 8739; [6]) was 1.56 µg/mL. The “MIC S. Aureus Smith” value (S. Aureus Smith) was 0.77 µg/mL.

With `CCCCCCNc1cc[n+](CCCCCCCCCC[n+]2ccc(NCCCCCC)cc2)cc1` [Example 33, 1,10-bis-[4-(hexylamino)-1-pyridinium]decane dibromide] the “Virucidal activity” value [1] was “active”, the MIC (A. niger 16404) was 3.9 µg/mL and the MIC (T. menta. 9129) was 1.95 µg/mL. The MIC (P. mirab. MGH-1) was 31.3 µg/mL, the MIC (E. coli 100/B22) was 1.95 µg/mL and the MIC (E. coli Vogel) was 1.95 µg/mL. It also gave an MIC (E. coli AB1932-1) of 0.98 µg/mL, an MIC (K. pneum. 39645) of 3.9 µg/mL and an MIC (Ps. aerug. MGH-2; Pseudomonas aeruginosa, 20 h, read-out: MIC Ps. aerug. MGH-2) of 31.3 µg/mL. The MIC (S. pyogen. C203; Streptococcus pyogenes, 20 h, read-out: MIC S. pyogen. C203) was 0.49 µg/mL, the “Fold Increase in MIC S. Aureus ATCC 6538” value (S. Aureus ATCC 6538) was 16 fold and the MIC (S. Aureus ATCC 6538; [3]) was 1.95 µg/mL. For the same compound, the MIC (S. Aureus ATCC 6538; [4]) was 0.125 µg/mL, the MIC (C. albicans Wisc.) was 3.9 µg/mL and the MIC (C. albicans 10231) was 1.95 µg/mL. The “Fold Increase in MIC E. Coli ATCC 8739” value (E. Coli ATCC 8739) was 16 fold, the MIC (E. Coli ATCC 8739; [5]) was 3.9 µg/mL and the MIC (E. Coli ATCC 8739; [6]) was 0.25 µg/mL. The MIC (S. Aureus Smith) was 0.195 µg/mL.

In the case of `CCCCCCCNc1cc[n+](CCCCCCCC[n+]2ccc(NCCCCCCC)cc2)cc1` [Example 22, 1,8-bis-[4-(heptylamino)-1-pyridinium]-octanedibromide], the “Virucidal activity” value [1] is reported as “active”, the MIC (A. niger 16404) is reported as 15.6 µg/mL and the MIC (T. menta. 9129) is reported as 1.95 µg/mL. For the same compound, the MIC (P. mirab. MGH-1) was 62.5 µg/mL, the MIC (E. coli 100/B22) was 0.98 µg/mL and the MIC (E. coli Vogel) was 1.95 µg/mL. For the same compound, the MIC (E. coli AB1932-1) was 0.98 µg/mL, the MIC (K. pneum. 39645) was 1.95 µg/mL and the “MIC Ps. aerug. MGH-2” value (Ps. aerug. MGH-2) was 313 µg/mL. For the same compound, the “MIC S. pyogen. C203” value (S. pyogen. C203) was 0.49 µg/mL, the “Fold Increase in MIC S. Aureus ATCC 6538” value (S. Aureus ATCC 6538) was 16 fold and the MIC (S. Aureus ATCC 6538; [3]) was 3.9 µg/mL. The MIC (S. Aureus ATCC 6538; [4]) was 0.25 µg/mL, the MIC (C. albicans Wisc.) was 1.95 µg/mL and the MIC (C. albicans 10231) was 0.98 µg/mL. The “Fold Increase in MIC E. Coli ATCC 8739” value (E. Coli ATCC 8739) was 8 fold, the MIC (E. Coli ATCC 8739; [5]) was 3.9 µg/mL and the MIC (E. Coli ATCC 8739; [6]) was 0.5 µg/mL. For the same compound, the MIC (S. Aureus Smith) was 0.39 µg/mL.

In the case of `CCCCCCNc1cc[n+](CCCCCCCCCCCC[n+]2ccc(NCCCCCC)cc2)cc1` [Example 7, 1,12-bis-[4-(hexylamino)-1-pyridinium]dodecane dibromide], the “Virucidal activity” value [1] is reported as “active”, the “MIC A. niger 16404” value (A. niger 16404) is reported as 3.0 µg/mL and the “MIC T. menta. 9129” value (T. menta. 9129) is reported as 0.37 µg/mL. The “MIC P. mirab. MGH-1” value (P. mirab. MGH-1) was 6.0 µg/mL, the “MIC E. coli 100/B22” value (E. coli 100/B22) was 0.37 µg/mL and the “MIC E. coli Vogel” value (E. coli Vogel) was 0.37 µg/mL. For the same compound, the “MIC E. coli AB1932-1” value (E. coli AB1932-1) was 0.37 µg/mL, the “MIC K. pneum. 39645” value (K. pneum. 39645) was 1.5 µg/mL and the “MIC Ps. aerug. MGH-2” value (Ps. aerug. MGH-2) was 23.8 µg/mL. The “MIC S. pyogen. C203” value (S. pyogen. C203) was 1.0 µg/mL, the “Fold Increase in MIC S. Aureus ATCC 6538” value (S. Aureus ATCC 6538) was 16 fold and the MIC (S. Aureus ATCC 6538; [3]) was 1.56 µg/mL. The MIC (S. Aureus ATCC 6538; [4]) was 0.1 µg/mL, the “MIC C. albicans Wisc.” value (C. albicans Wisc.) was 0.74 µg/mL and the “MIC C. albicans 10231” value (C. albicans 10231) was 0.74 µg/mL. The “Fold Increase in MIC E. Coli ATCC 8739” value (E. Coli ATCC 8739) was 32 fold, the MIC (E. Coli ATCC 8739; [5]) was 12.5 µg/mL and the MIC (E. Coli ATCC 8739; [6]) was 0.39 µg/mL. The “MIC S. Aureus Smith” value (S. Aureus Smith) was 0.15 µg/mL.

From US4206215A, “Antimicrobial bis-[4-(substituted-amino)-1-pyridinium]alkanes” (Sterling Drug Inc., priority 1977, dated 1980)
